# Source: PMC9233675, “Ru(II) photocages enable precise control over enzyme activity with red light” (Nature Communications, 2022)
# Legend:
# [1] = Stability of compounds in mouse liver microsomes; conditions: for Remaining, % (NCF=60min): mouse liver microsomes, no co-factor (no NADPH); for CLint scaled / Remaining, % (T=60min) / half-life / microsomal CLint: mouse, liver microsomes
# [2] = target: T1, recombinant CYP1B1 (Homo sapiens, UniProt Q16678); experiment: CYP1B1 stability: thermal melt by circular dichroism
# T1 sequence (Q16678 51-543 limits assumed): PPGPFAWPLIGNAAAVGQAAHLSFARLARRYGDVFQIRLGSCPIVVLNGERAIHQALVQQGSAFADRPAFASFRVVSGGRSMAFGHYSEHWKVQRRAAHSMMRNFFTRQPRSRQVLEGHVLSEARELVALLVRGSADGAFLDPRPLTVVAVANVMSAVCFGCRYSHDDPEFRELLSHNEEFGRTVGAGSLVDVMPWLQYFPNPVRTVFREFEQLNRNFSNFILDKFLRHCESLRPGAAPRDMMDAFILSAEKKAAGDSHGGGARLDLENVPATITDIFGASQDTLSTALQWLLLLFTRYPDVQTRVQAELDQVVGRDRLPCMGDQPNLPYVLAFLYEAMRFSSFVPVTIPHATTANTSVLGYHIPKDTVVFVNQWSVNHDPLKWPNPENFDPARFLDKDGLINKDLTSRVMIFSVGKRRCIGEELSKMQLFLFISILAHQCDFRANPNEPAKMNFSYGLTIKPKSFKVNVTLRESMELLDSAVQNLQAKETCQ
# Procedure: Circular Dichroism (CD) was used to monitor changes in the secondary structure with increasing temperature. […] CYP1B1 was expressed and purified as reported. […] Spectra were taken scanning from 200 to 260 nm in duplicate. The temperature was increased followed by a 3 min equilibration period before spectra acquisition. The ellipticity values at 230 nm were plotted against temperature and fit to determine the Tm (Prism).
# [3] = Stability of complexes at 37 °C in the dark (HPLC, UV/Vis); assay type: physicochemical; conditions: for Stability, % remaining at 24 h: 37 °C in H2O, dark
# Procedure: The stability of each complex was assessed over 24 h under aqueous conditions at 37 °C (Supplementary Figs. 12–15). […] Given the potency of the caged inhibitor, thermal stability is of critical importance, making complex 6 the preferred photocaged candidate.
# Opti-MEM with 2% fetal bovine serum (right) at 37 °C in the dark over the course of 0 (blue line) to 24 h (black dashed line). Compounds were tested in triplicate (n = 3), the data for one replicate are presented. Complexes 4 and 5 slowly degraded in the experiment condition (see HPLC traces, Figures S13–14). The decrease in absorbance for complex 6 is explained by the slow aggregation of the compound in the 96-well plate.
# (1 picture or pasted object on this page, not shown here)
# Supplementary Figure 13. a HPLC chromatogram analysis of stability of 4 (50 µM in di-H2O) before (black dashed line, purity > 92 % ) and after incubation at 37 °C for 24 hours (red line). At 24 hours, 43 % of 4 was […]
# Supplementary Figure 14. HPLC chromatogram analysis of stability of 5 (50 µM in di-H2O) before (black dashed line, purity > 97 %) and after incubation at 37 °C for 24 hours (red line). At 24 hours, 50 % of 5 was observed […]
# Supplementary Figure 15. HPLC chromatogram analysis of stability of 6 (40 µM in di-H O : MeCN mixture (4:1), […]
# MeCN was added to reduce the aggregation) before (black dashed line, purity > 99.5 %) and after incubation at 37 °C for 24 hours. At 24 hours, less than 2 % degradation was observed (calculated by area, detection wavelength = […]
# Supplementary Figure 16. HPLC chromatogram analysis of stability of 6 (40 µM) in 5 % DMSO / di-H2O with a 100 μM GSH, b 100 μM imidazole and c acidic condition (pH = 1) after incubation at 37 °C for 72 hours. Less than […]
# detection wavelength = 280 nm). […]
# imidazole and c acidic condition (pH = 1) after incubation at 37 °C for 72 hours. d At 72 hours less than 7 % degradation was observed by HPLC at pH = 1 (calculated by area, detection wavelength = 280 nm). Compounds were tested in triplicate (n = 3), the data for one replicate are presented.
Compound,"Remaining, % (NCF=60min) [1]",CLint scaled [1],"Remaining, % (T=60min) [1]",half-life [1],microsomal CLint [1],increase of thermal stability of CYP1B1 ([2]; 10 μM compound),"Tm ([2]; recombinant CYP1B1 + 10 µM compound, no compound 47.9)","degradation with GSH ([3]; 5 % DMSO / di-H2O, 100 μM GSH, 37 °C, 72 hours)","degradation with imidazole ([3]; 5 % DMSO / di-H2O, 100 μM imidazole, 37 °C, 72 hours)","Stability, % remaining at 24 h ([3]; HPLC)","degradation at 24 hours ([3]; 37 °C, di-H2O : MeCN mixture (4:1), HPLC)"
COc1ccc(/C=C/c2ccncn2)c(OC)c1 [Compound 2],111.5%,3620 mL/min/kg,0.1%,1.51 min,915 µL/min/mg,–,–,–,–,–,–
COc1ccc(C=Cc2ccncc2)c(OC)c1 [Compound 3],137.9%,1900 mL/min/kg,0.1%,2.89 min,480 µL/min/mg,2 °C,50.4 +/− 0.26 °C,–,–,–,–
COc1ccc(/C=C/c2cc[n+]([Ru-4]345([n+]6ccccc6-c6cccc([n+]63)-c3cccc[n+]34)[n+]3c(cc(C(=O)[O-])c4ccccc43)-c3cc(C(=O)[O-])c4ccccc4[n+]35)cc2)c(OC)c1 [Compound 6],–,–,–,–,–,–,–,less than 2%,less than 2%,98.6%,less than 2%
COc1ccc(/C=C/c2cc[n+]([Ru-4]345([n+]6ccccc6-c6cccc([n+]63)-c3cccc[n+]34)[n+]3c(cc(C(=O)[O-])c4ccccc43)-c3cc(C(=O)[O-])c4ccccc4[n+]35)cn2)c(OC)c1 [Compound 5],–,–,–,–,–,–,–,–,–,50%,–
